This note sets out measurements from paper PMC12567141, “Design, Synthesis and Biological Evaluation of Pyrazolopyrimidine Derivatives as Aryl Hydrocarbon Receptor Antagonists for Colorectal Cancer Immunotherapy” (Pharmaceutics, 2025).

This assay has as its system PD-L1 expression in MC38 and CT26 cancer cells. The assay can be described thus: PD-L1 expression by FACS in IFNγ-treated colorectal cancer cells. The assay is classed as cell-based. As for the experimental part: For analysis of PD-L1 expression in colorectal cancer cells, MC38 in 24-well plates were treated with IFNγ (10 ng/mL) for 24 h and incubated with 5 and 10 μM for 24 h. Cells were collected and stained with APC-conjugated PD-L1 Ab at 4 °C for 30 min (BioLegend). After washing with FACS buffer (Biolegend) three times, the cells were analysed using Becton Dickinson LSRFortessa^TM and analyzed with FlowJo software. Isotype-matched monoclonal antibodies were used as controls. The data were analysed using Flowjo analysis software (FlowJo LLC, Ashland, OR, USA).

Structures are written as SMILES.

On to `CC(C)n1cc2nc(-c3cc(F)cc(F)c3)nc(NCCc3c[nH]c4ccccc34)c2n1` [Compound 7k, N-(2-(1H-indol-3-yl)ethyl)-5-(3,5-difluorophenyl)-2-isopropyl-2H-pyrazolo [4,3-d]pyrimidin-7-amine], for which the PD-L1 expression entry is on record as “dose-dependent downregulation of PD-L1 expression”.
